From patent publication US5380834A, “Immuno-suppressive agent” (Ishihara Sangyo Kaisha Ltd., priority 1992, dated 1995)
Values after ≈ are worked out from the molar mass of the structure shown.

Assays:
murine thymocytes = assay: Effects on the mitogenic response by murine thymocytes (Con A stimulation, 3H-TdR uptake); type: cell-based, BALB/c murine; details: Mus musculus, Thymocyte; BALB/c thymocytes, Con A 5 μg/ml, 48 hours, 3H-TdR uptake; read-out: IC50 value, a (mitogenic response of murine thymocytes)
Experimental: Using BALB/c murine thymocytes, the effect of the compound of the formula (I) on the mitogenic response of lymphocytes to the stimulation by concanavalin A (hereinafter referred to simply as Con A, Product No. L-1000, manufactured by Vector Laboratories) was studied. Namely, 4×10^5 murine thymocytes were cultured for 48 hours on a microplate with 96 wells in a RPMI1640 solution containing 10% of a fetal bovine serum (hereinafter referred to simply as a 10% FCS-RPMI solution) together with Con A (5 μg/ml) and the compound of the formula (I) (in an incubator, 5% CO2, at 37° C.). Then, 0.5 μCi of ^3 H-thymidine (hereinafter referred to simply as ^3 H-TdR) was added thereto, and the mixture was further cultured for 4 hours. Then, cells were collected by a cell harvester, and the radioactivity (dpm) of ^3 H-TdR uptaken into cells was measured. Such measured amounts of ^3 H-TdR uptaken into the cells were used as indices of the mitogenic response of the murine thymocytes, and the radioactivity at each concentration (from 0.001 to 1,000 μg/ml) of the compound of the formula (I) was compared with the control value treated solely by Con A, to calculate IC50 value. In these Tables 12 and 13, the results of murine thymocytes are shown by (a).
For the basic procedure of this test, reference was made to Selected methods in cellular immunology, p. 144-146 (translated by Katsuyuki Imai et al., published by Rikogakusha, (1982)).

[1] = tested on: murine mixed lymphocyte reaction (spleen cells of BALB/c and C57BL/6 mice); assay: Effects on the murine mixed lymphocyte reaction (3H-TdR uptake); type: cell-based; details: Mus musculus, BALB/c + C57BL/6 spleen cells, 48 hours, read-out: IC50 value, b (murine mixed lymphocyte reaction)
Experimental: Using spleen cells of BALB/c and C57BL/6 mice, the effect of the compound of the formula (I) on the murine mixed lymphocyte reaction in both sides, was studied. Namely, spleen cells of both types of mice were mixed in an equal amount of 5×10^5 cells each, and the mixed cells were cultured together with the compound of the formula (I) for 48 hours on a microplate with 96 wells by a 10% FCS-RPMI solution (in an incubator, 5% CO2, at 37° C.). Then, 0.5 μCi of ^3 H-TdR was added thereto, and the mixture was further cultured for from 16 to 18 hours. Then, cells were collected by a cell harvester, and the radioactivity (dpm) of ^3 H-TdR uptaken into the cells, was measured. Such measured amounts of ^3 H-TdR uptaken into the cells were used as indices for the mixed lymphocyte reaction, and the radioactivity at each concentration (from 0.001 to 1,000 μg/ml) of the compound of the formula (I) was compared with the non-treated control value, to calculate the Ic50 value.
For the basic procedure for this test, reference was made to Selected methods in cellular immunology, p. 147-149 (translated by Katsuyuki Imai et al., published by Rikogakusha, (1982)).

murine bone mallow cells = assay: Effects on the murine bone mallow cells (proliferation, 3H-TdR uptake); type: cell-based, BALB/c mouse; details: Mus musculus, bone marrow cells; 20% L929 culture supernatant, 48 hours, 3H-TdR uptake; Tables 12-15; read-out: IC50 value, c (murine bone mallow cells)
Experimental: Bone mallow cells were removed from the femur of a BALB/c mouse and suspended in a 10% FCS-RPMI solution. The cell suspension was put into a plastic Petri dish having a diameter of 10 cm and left to stand still (in an incubator, 5% CO2, at 37° C.). Two hours later, only floating cells were recovered, and adhesion cells were removed. 1×10^5 floating cells were cultured for 48 hours together with a 20% culture supernatant of L929 fibroblastoma and the compound of the formula (I) on a microplate with 96 wells by a 10% FCS-RPMI solution (in an incubator, 5% CO2, at 37° C.). Then, 0.5 μCi of ^3 H-TdR was added thereto, and the mixture was further cultured for 4 hours. Then, cells were collected by a cell harvester, and the radioactivity (dpm) of ^3 H-TdR uptaken into the cells, was measured. Such measured amounts of ^3 H-TdR uptaken into the cells were used as indices for the proliferation of bone mallow cells, and the radioactivity at each concentration (from 0.001 to 1,000 μg/ml) of the compound of the formula (I) was compared with the control value where the L929 culture supernatant was added alone, to calculate the IC50 value. In these Tables 12 and 13, the results of the bone mallow cells are shown by (c).
For the basic procedure of this test, reference was made to Seikagakujikken Koza compiled by Japan Biochemistry Association, Vol. 5, p. 266-270 (published by Tokyo Kagaku Dojin in 1986).

[2] = tested on: IgGl antibody production from murine spleen B cells; assay: Effects on the IgGl antibody production from murine spleen cells (LPS + IL4); type: cell-based, BALB/c mouse; details: Mus musculus, B-cell, 168 h; spleen B cells, LPS 10 μg/ml, IL4 100 U/ml, 7 days, enzyme-immunoassay; read-out: IC50 value, IgGl antibody production
Experimental: (§1) Using murine spleen B cells, the effects of the compound of the formula (I) on the IgGl, IgM and IgE antibody production induced by the stimulation by LPS (lipopolysaccharide; Product No. 520.02051, manufactured by Wako Junyaku) and IL4 (interleukin 4), were studied. Namely, spleen cells of a BALB/c mouse were treated with a murine anti-Thy-1 antibody (obtained from Chiba University) and a rabbit complement (Product No. 3051, manufactured by cedarlane) to remove T cells, and 3×10^5 spleen B cells were cultured for 7 days together with 10 μg/ml of LPS, 100 U/ml of mouse-recombinant IL4 (Product No. MIL-4C, manufactured by Genzyme) and each concentration (from […]) of the compound of the formula (I) on a microplate with 96 wells by a 10% FCS-RPMI solution (in an incubator, 5% CO2, at 37° C.).
(§2) For the basic procedure of this test, reference was made to The Journal of Immunology, Vol. 136, p. 4538, (1986).
(§3) The amount of each antibody in the cell culture supernatant hereby obtained, was measured by the following enzyme-immunoassay. Firstly, on a microplate with 96 wells, 1 μg/ml of a rabbit anti-mouse IgGl antibody (Product No. 36243, manufactured by Cappel), 1 μg/ml of a goat anti-mouse IgM antibody (Product No. 0611-0201, manufactured by Cappel) or 10 μg/ml of a rat anti-mouse IgE monoclonal antibody (Product No. LO-ME-2, manufactured by Experimental Immunology) was coated (50 μl/well, at room temperature for 60 minutes), and then a nonspecific bond was blocked by a 0.1% bovine serum albumin-containing 10 mM sodium phosphate buffer (pH 7.2) (at room temperature for 60 minutes). Then, the above-mentioned cell culture supernatant or its diluted solution was added in an amount of 50 μl/well and reacted at room temperature for 60 minutes. Further, an alkaline phosphatase-labeled rabbit anti-mouse IgGl antibody (Product No. 61-0122, manufactured by Zymet) diluted 1,000 times, an alkaline phosphatase-labeled rabbit anti-mouse IgM antibody (Product No. 61-6822, manufactured by Zymet) diluted 2,000 times, or an alkaline phosphatase-labeled goat anti-mouse IgE antibody (Product No. PA-284, manufactured by Binding Site) diluted 500 times was added in an amount of 50 μl/well and reacted at room temperature for 60 minutes. 100 μl/well of a 10% diethanol amine buffer solution (pH 9.8) containing p-nitrophenyl phosphate as an enzyme substrate, was reacted, and the absorbance at 405 nm was measured. The amount of each antibody was calculated from the calibration curve of each standard antibody, and the IC50 value of the compound of the formula (I) on the antibody production was calculated using as the control value a value obtained in the absence of the compound of the formula (I).

[3] = tested on: IgM antibody production from murine spleen B cells; assay: Effects on the IgM antibody production from murine spleen cells (LPS + IL4); type: cell-based, BALB/c mouse; details: Mus musculus, B-cell, 168 h; spleen B cells, LPS 10 μg/ml, IL4 100 U/ml, 7 days, enzyme-immunoassay; read-out: IC50 value, IgM antibody production
Experimental: as §1, §2, §3

[4] = tested on: IgE antibody production from murine spleen B cells; assay: Effects on the IgE antibody production from murine spleen cells (LPS + IL4); type: cell-based, BALB/c mouse; details: Mus musculus, B-cell, 168 h; spleen B cells, LPS 10 μg/ml, IL4 100 U/ml, 7 days, enzyme-immunoassay; read-out: IC50 value, IgE antibody production
Experimental: as §1, §2, §3

Row | Compound | IC50 (murine thymocytes) | IC50 [1] | IC50 (murine bone mallow cells) | IC50 [2] | IC50 [3] | IC50 [4]
1 | CC(C)CC(=O)O[C@H]1C=C[C@H]2CO[C@@H]1O2 [Compound 2, 1,6-anhydro-3,4-dideoxy-2-O-isovaleryl-β-D-threo-hex-3-enopyranose] | 350 µg/mL (≈ 1650 µM) | 560 µg/mL | > 1000 µg/mL | 300 µg/mL | 250 µg/mL | 370 µg/mL
2 | C/C=C/C(=O)O[C@H]1C=C[C@H]2CO[C@@H]1O2 [Compound 3] | 0.0044 µg/mL (≈ 0.0224 µM) | 0.0044 µg/mL | 130 µg/mL (≈ 663 µM) | 2.4 µg/mL | < 0.001 µg/mL | 0.024 µg/mL
3 | O=C(O[C@H]1C=C[C@H]2CO[C@@H]1O2)C1CCCCC1 [Compound 4] | 450 µg/mL (≈ 1890 µM) | 140 µg/mL | 160 µg/mL (≈ 671 µM) | 100 µg/mL | 56 µg/mL | 11 µg/mL
4 | O=C(O[C@H]1C=C[C@H]2CO[C@@H]1O2)c1ccccc1 [Compound 5] | 130 µg/mL (≈ 560 µM) | 130 µg/mL | 150 µg/mL (≈ 646 µM) | 300 µg/mL | 170 µg/mL | 71 µg/mL
5 | CCCCCC(=O)O[C@H]1C=C[C@H]2CO[C@@H]1O2 [Compound 6] | 250 µg/mL (≈ 1100 µM) | 540 µg/mL | 270 µg/mL (≈ 1190 µM) | 450 µg/mL | 330 µg/mL | 210 µg/mL
6 | CCCCCCCCCCCCCCCC(=O)O[C@H]1C=C[C@H]2CO[C@@H]1O2 [Compound 7] | 49 µg/mL (≈ 134 µM) | 76 µg/mL | 89 µg/mL (≈ 243 µM) | 330 µg/mL | 410 µg/mL | 180 µg/mL
7 | CCCCCCCC/C=C\CCCCCCCC(=O)O[C@H]1C=C[C@H]2CO[C@@H]1O2 [Compound 8] |  |  | > 1000 µg/mL | 810 µg/mL | 340 µg/mL | 310 µg/mL
8 | CC(=O)O[C@H]1C=C[C@H]2CO[C@@H]1O2 [Compound 9] |  |  | > 1000 µg/mL | 790 µg/mL | 720 µg/mL | 320 µg/mL
9 | O=C(CCl)O[C@H]1C=C[C@H]2CO[C@@H]1O2 [Compound 10] | 1.4 µg/mL (≈ 6.84 µM) | 18 µg/mL | 68 µg/mL (≈ 332 µM) | < 0.001 µg/mL | < 0.001 µg/mL | < 0.001 µg/mL
